“And” between values parts separate entries of the source, which are not always exact repeats. Equal values may be shown once. Inconclusive results and toxic doses are left out. No stated cut-off is given here; in the data, active means T/C of 150% or more; inactive means T/C below 125%.
System: L1210 leukemia ip in BDF1 mice, survival T/C
Assay: NCI In Vivo Anticancer Drug Screen. Data for tumor model L1210 Leukemia (intraperitoneal) in B6D2F1 (BDF1) mice
Conditions: endpoint: mean survival time, higher = longer survival
How it was run: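 Tumor was transplanted into mice, which were then dosed with test compound or vehicle alone. Survival was recorded for each group, and the treated figure was expressed relative to the control figure.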

[1] = dose: 100.0 mg/kg/injection, schedule: Q01DX001 (ip), vehicle: saline
[2] = dose: 200.0 mg/kg/injection, schedule: Q01DX001 (ip), vehicle: saline
[3] = dose: 400.0 mg/kg/injection, schedule: Q01DX001 (ip), vehicle: saline
[4] = dose: 100.0 mg/kg/injection, schedule: Q04DX003 (ip), vehicle: saline with Tween-80
[5] = dose: 75.0 mg/kg/injection, schedule: Q01DX001 (ip), vehicle: saline
[6] = dose: 150.0 mg/kg/injection, schedule: Q01DX001 (ip), vehicle: saline
[7] = dose: 100.0 mg/kg/injection, schedule: Q04DX003 (ip), vehicle: Klucel (hydroxypropylcellulose) (HPC)
[8] = dose: 200.0 mg/kg/injection, schedule: Q04DX003 (ip), vehicle: Klucel (hydroxypropylcellulose) (HPC)
[9] = dose: 400.0 mg/kg/injection, schedule: Q04DX003 (ip), vehicle: Klucel (hydroxypropylcellulose) (HPC)
[10] = dose: 100.0 mg/kg/injection, schedule: Q04DX002 (ip), vehicle: saline
[11] = dose: 200.0 mg/kg/injection, schedule: Q04DX002 (ip), vehicle: saline
[12] = dose: 400.0 mg/kg/injection, schedule: Q04DX002 (ip), vehicle: saline
[13] = dose: 100.0 mg/kg/injection, schedule: Q01DX001 (ip), vehicle: carboxymethylcellulose (CMC)
[14] = dose: 200.0 mg/kg/injection, schedule: Q01DX001 (ip), vehicle: carboxymethylcellulose (CMC)
[15] = dose: 400.0 mg/kg/injection, schedule: Q01DX001 (ip), vehicle: carboxymethylcellulose (CMC)
[16] = dose: 100.0 mg/kg/injection, schedule: Q01DX009 (ip), vehicle: Klucel (hydroxypropylcellulose) (HPC)
[17] = dose: 200.0 mg/kg/injection, schedule: Q01DX009 (ip), vehicle: Klucel (hydroxypropylcellulose) (HPC)
[18] = dose: 100.0 mg/kg/injection, schedule: Q04DX002 (ip), vehicle: Klucel (hydroxypropylcellulose) (HPC)
[19] = dose: 200.0 mg/kg/injection, schedule: Q04DX002 (ip), vehicle: Klucel (hydroxypropylcellulose) (HPC)

Measured: T/C

CCCCN(CCCC)CCCNc1c2c(nc3ccccc13)CCCC2
inactive: dose: 5.0 mg/kg/injection, schedule: Q01DX001 (ip), vehicle: saline 95 % of control | dose: 10.0 mg/kg/injection, schedule: Q01DX001 (ip), vehicle: saline 95 % of control | dose: 20.0 mg/kg/injection, schedule: Q01DX001 (ip), vehicle: saline 93 % of control | dose: 40.0 mg/kg/injection, schedule: Q01DX001 (ip), vehicle: saline 89 % of control | dose: 50.0 mg/kg/injection, schedule: Q01DX001 (ip), vehicle: saline 91 % of control | dose: 80.0 mg/kg/injection, schedule: Q01DX001 (ip), vehicle: saline 93 % of control

O=c1cc(CO)oc(C(Nc2cccc(Cl)c2)c2ccccc2)c1O (stereo not drawn)
inactive: [1] 91 % of control | [2] 95 % of control | [3] 89 % of control

CC(O)CN1CCCCCC1 (stereo not drawn)
inactive: dose: 12.5 mg/kg/injection, schedule: Q01DX009 (ip), vehicle: saline with Tween-80 103 % of control | dose: 25.0 mg/kg/injection, schedule: Q01DX009 (ip), vehicle: saline with Tween-80 94 % of control | dose: 25.0 mg/kg/injection, schedule: Q04DX003 (ip), vehicle: saline with Tween-80 107 % of control | dose: 50.0 mg/kg/injection, schedule: Q01DX009 (ip), vehicle: saline with Tween-80 93 % of control | dose: 50.0 mg/kg/injection, schedule: Q04DX003 (ip), vehicle: saline with Tween-80 107 % of control | [4] 95 % of control

CCCCC(=O)NC1=CC(=O)c2ccccc2C1=O
inactive: [5] 95 % of control | [6] 91 % of control

CC1=NN(c2ccccc2)C(=O)CC1
inactive: [7] 106 % of control | [8] 100 % of control | [9] 105 % of control

CC(C)CCOC(=O)C1(C)OC1c1ccccc1 (stereo not drawn)
inactive: [10] 101 % of control | [11] 97 % of control | [12] 93 % of control

O=C1C(Cl)=C(Nc2ccccc2Cl)C(=O)C(Cl)=C1Nc1ccccc1Cl
inactive: dose: 50.0 mg/kg/injection, schedule: Q01DX001 (ip), vehicle: carboxymethylcellulose (CMC) 101 % of control | [13] 101 % of control | [4] 95 % of control | [14] 90 % of control | dose: 200.0 mg/kg/injection, schedule: Q04DX003 (ip), vehicle: saline with Tween-80 98 % of control | [15] 95 % of control | dose: 400.0 mg/kg/injection, schedule: Q04DX003 (ip), vehicle: saline with Tween-80 98 % of control

Cc1ccc(S(=O)(=O)Nc2ccc(OS(=O)(=O)c3ccc(C)cc3)cc2)cc1
inactive: [13] 108 % of control | [14] 100 % of control | [15] 100 % of control

CC(=O)Nc1ccc2ccc3ccccc3c2c1
inactive: [16] 94 % of control | [7] 98 % of control | [17] 95 % of control | [8] 98 % of control | dose: 400.0 mg/kg/injection, schedule: Q01DX009 (ip), vehicle: Klucel (hydroxypropylcellulose) (HPC) 92 % of control | [9] 94 % of control

CC1=C(N)NN(O)C=C1
inactive: [10] 104 % of control | [11] 116 % of control | [12] 101 % of control

N=C(N)SCCCSC(=N)N
inactive: dose: 25.0 mg/kg/injection, schedule: Q04DX003 (ip), vehicle: Klucel (hydroxypropylcellulose) (HPC) 95 % of control | dose: 50.0 mg/kg/injection, schedule: Q04DX003 (ip), vehicle: Klucel (hydroxypropylcellulose) (HPC) 97 % of control | dose: 100.0 mg/kg/injection, schedule: Q01DX009 (ip), vehicle: saline 102 % of control | [7] 97 % of control and 98 % of control

O/N=C1/CC2CCC(C2)C1(O)c1ccccc1 (stereo not drawn)
inactive: [1] 103 % of control | [2] 113 % of control | [3] 103 % of control

C=C1CC(Cc2ccccc2)OC1=O (stereo not drawn)
inactive: dose: 100.0 mg/kg/injection, schedule: Q01DX001 (ip), vehicle: saline with Tween-80 94 % of control

[CH3][Pb]([CH3])([CH3])[NH]C#N
inactive: dose: 5.0 mg/kg/injection, schedule: Q04DX003 (ip), vehicle: saline 101 % of control | dose: 10.0 mg/kg/injection, schedule: Q04DX003 (ip), vehicle: saline 86 % of control

NNC(=O)CNc1cc(Cl)cc(Cl)c1
inactive: [13] 94 % of control | dose: 100.0 mg/kg/injection, schedule: Q01DX009 (ip), vehicle: carboxymethylcellulose (CMC) 92 % of control | [18] 91 % of control | dose: 100.0 mg/kg/injection, schedule: Q04DX002 (ip), vehicle: carboxymethylcellulose (CMC) 95 % of control and 100 % of control | dose: 100.0 mg/kg/injection, schedule: Q04DX003 (ip), vehicle: carboxymethylcellulose (CMC) 92 % of control | [14] 96 % of control | dose: 200.0 mg/kg/injection, schedule: Q01DX009 (ip), vehicle: carboxymethylcellulose (CMC) 88 % of control | [19] 109 % of control | dose: 200.0 mg/kg/injection, schedule: Q04DX002 (ip), vehicle: carboxymethylcellulose (CMC) 95 % of control and 104 % of control | dose: 200.0 mg/kg/injection, schedule: Q04DX003 (ip), vehicle: carboxymethylcellulose (CMC) 97 % of control | dose: 400.0 mg/kg/injection, schedule: Q04DX002 (ip), vehicle: carboxymethylcellulose (CMC) 98 % of control

COC(=O)c1cc(NC(=O)Nc2cc([N+](=O)[O-])ccc2C)cc(C(=O)OC)c1
inactive: [10] 120 % of control | [11] 103 % of control | [12] 116 % of control

NC(=O)Cc1ccc(C(C2=C(O)c3ccccc3C(=O)C2=O)C2=C(O)c3ccccc3C(=O)C2=O)cc1
inactive: [5] 96 % of control | [6] 101 % of control | dose: 300.0 mg/kg/injection, schedule: Q01DX001 (ip), vehicle: saline 91 % of control

COc1ccc([N+](=O)[O-])c(O)c1C
inactive: dose: 100.0 mg/kg/injection, schedule: Q01DX009 (ip), vehicle: saline with Tween-80 90 % of control | dose: 200.0 mg/kg/injection, schedule: Q01DX009 (ip), vehicle: saline with Tween-80 96 % of control | dose: 400.0 mg/kg/injection, schedule: Q01DX009 (ip), vehicle: saline with Tween-80 106 % of control

C[N+](C)(C)c1ncnc2c1ncn2C1CCCO1 (stereo not drawn)
inactive: dose: 50.0 mg/kg/injection, schedule: Q01DX Z (ip), vehicle: methylcellulose (MC) 92 % of control | dose: 100.0 mg/kg/injection, schedule: Q01DX Z (ip), vehicle: methylcellulose (MC) 94 % of control

CC(C)OC(=O)Nc1cccc([N+](=O)[O-])c1
inactive: [18] 105 % of control | [19] 91 % of control | dose: 400.0 mg/kg/injection, schedule: Q04DX002 (ip), vehicle: Klucel (hydroxypropylcellulose) (HPC) 97 % of control

[Br][V]([Br])[Br]
inactive: dose: 12.0 mg/kg/injection, schedule: Q01DX009 (ip), vehicle: saline 97 % of control | dose: 25.0 mg/kg/injection, schedule: Q01DX009 (ip), vehicle: saline sonified 92 % of control | dose: 25.0 mg/kg/injection, schedule: Q01DX009 (ip), vehicle: saline 93 % of control | dose: 50.0 mg/kg/injection, schedule: Q01DX009 (ip), vehicle: saline 102 % of control | dose: 100.0 mg/kg/injection, schedule: Q04DX003 (ip), vehicle: saline 102 % of control

O=C1c2ccccc2C(=O)N1c1cccc([N+](=O)[O-])c1
inactive: dose: 50.0 mg/kg/injection, schedule: Q01DX009 (ip), vehicle: Klucel (hydroxypropylcellulose) (HPC) 114 % of control | [16] 90 % of control | [17] 114 % of control

Cc1cc(N=Nc2c(C)ccc3ncccc23)ccc1N
inactive: dose: 3.12 mg/kg/injection, schedule: Q01DX001 (ip), vehicle: DMSO 90 % of control | dose: 6.25 mg/kg/injection, schedule: Q01DX001 (ip), vehicle: DMSO 98 % of control | dose: 12.5 mg/kg/injection, schedule: Q01DX001 (ip), vehicle: DMSO 98 % of control

Reference: PubChem BioAssay AID248 (DTP/NCI, 2004)
